Experimental data reported in publication PMC10779987, “Machine-Learning- and Structure-Based Virtual Screening for Selecting Cinnamic Acid Derivatives as Leishmania major DHFR-TS Inhibitors” (Molecules, 2023).
Where two headings read alike, the source gives them in different places.

Columns and labels:
TNBC cells = conditions: read-out: IC50, TNBC cells in vitro; FAK inhibitor; proliferation, invasion, migration; cited from earlier work
Leishmania amastigotes = test system: Leishmania amastigotes; parameters: method as in earlier work; conditions: ref 24 (Gouri et al.); read-out: IC50 against Leishmania amastigotes; cited from earlier work
LmDHFR-TS = molecular target: T1, LmDHFR-TS (Leishmania major, UniProt P07382); assay: LmDHFR-TS enzymatic inhibition assay (spectrophotometric standard DHFR assay); format: biochemical; conditions: for SI (selectivity index): HsDHFR versus LmDHFR-TS
T1 construct: made in house
Description: The determination of IC50 values involved analyzing concentration-response curves within the 0.1–128 μM range, employing spectrophotometric monitoring of enzymatic activity in a standard DHFR assay.
(§1) Purification and kinetic characterization of the recombinant LmDHFR-TS protein were performed according to the previously reported procedures, while HsDHFR protein was obtained from the commercial assay kit (CS0340, Merck KGaA, Darmstadt, Germany). […] These tested compounds were available from our in-house compound library.
(§2) The assay was conducted with either LmDHFR-TS or HsDHFR (2.7 nM), bovine serum albumin (BSA, 1 mg/mL), N-[tris(hydroxymethyl)-methyl]-2-aminoethanesulfonic acid (TES) buffer (100 mM, pH 7.0, 150 mM β-mercaptoethanol, 2 mM ethylenediaminetetraacetic acid (EDTA)), and nicotinamide adenine dinucleotide phosphate (NADPH, 100 μM), along with varying concentrations of the test compounds (0.1–128 μM). The reaction was initiated by adding the substrate (7,8-dihydrofolate (H2F), 20 μM) and monitored for 360 s at 340 nm, measuring the oxidation of NADPH to NADP+. This allowed the determination of the initial reaction rate (Vo) through linear regression analysis of the resulting absorbance profile.

HsDHFR = molecular target: T2, HsDHFR (Homo sapiens, UniProt P00374); assay: HsDHFR enzymatic inhibition assay (spectrophotometric standard DHFR assay); format: biochemical
T2 construct: purchased Merck KGaA CS0340
T2 sequence (P00374 1-187): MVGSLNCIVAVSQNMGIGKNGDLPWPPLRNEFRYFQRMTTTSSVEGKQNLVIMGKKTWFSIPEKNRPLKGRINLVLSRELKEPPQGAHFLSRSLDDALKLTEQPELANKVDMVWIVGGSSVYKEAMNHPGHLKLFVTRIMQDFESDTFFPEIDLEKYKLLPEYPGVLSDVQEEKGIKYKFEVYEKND
Description: Following this, we calculated the selectivity index (SI) based on the results obtained from in vitro tests using the recombinant protein of Homo sapiens (Hs) DHFR.
as §1, §2

HepG2 = conditions: read-out: IC50 cytotoxic activity, HepG2; HepG2 cell line; cited from earlier work
BEL-7402 = conditions: read-out: IC50 cytotoxic activity, BEL-7402; BEL-7402 cell line; cited from earlier work
[1] = recombinant LmDHFR-TS 2.7 nM, 0.1–128 μM test range, triplicate
[2] = HsDHFR 2.7 nM, 0.1–128 μM test range, triplicate, read-out: HsDHFR IC50

T1 sequence (P07382 whole entry): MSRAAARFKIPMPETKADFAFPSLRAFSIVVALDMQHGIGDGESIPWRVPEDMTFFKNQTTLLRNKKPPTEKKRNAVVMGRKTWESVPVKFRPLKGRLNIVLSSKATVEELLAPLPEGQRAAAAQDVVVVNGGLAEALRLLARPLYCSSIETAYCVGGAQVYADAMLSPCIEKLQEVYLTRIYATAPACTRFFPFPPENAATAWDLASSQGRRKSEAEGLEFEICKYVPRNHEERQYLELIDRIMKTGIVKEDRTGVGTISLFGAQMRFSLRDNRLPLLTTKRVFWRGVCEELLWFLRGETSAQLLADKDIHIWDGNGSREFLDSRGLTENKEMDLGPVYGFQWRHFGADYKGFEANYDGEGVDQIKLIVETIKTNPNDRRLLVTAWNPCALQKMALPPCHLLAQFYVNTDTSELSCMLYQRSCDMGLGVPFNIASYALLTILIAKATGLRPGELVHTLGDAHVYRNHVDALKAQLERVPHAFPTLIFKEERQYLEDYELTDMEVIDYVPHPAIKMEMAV

Structure (SMILES)	IC50 (Leishmania amastigotes) [µM]	IC50 (LmDHFR-TS) [µM]	IC50 (HsDHFR; [2]) [µM]	also measured
CN(C)CCN(C(=O)/C=C/c1c[nH]c2ccccc12)c1ccccn1 [(E)-N-(2-(dimethylamino)ethyl)-3-(1H-indol-3-yl)-N-(pyridin-2-yl) acrylamide]				IC50 (TNBC cells): 8.37 µM
O=c1cc(-c2ccccc2)oc2cc(O)cc(O)c12 [Compound 69, chrysin]	13			
COc1ccc([C@@H]2CC(=O)c3c(O)cc(O[C@@H]4O[C@H](CO[C@@H]5O[C@@H](C)[C@H](O)[C@@H](O)[C@H]5O)[C@@H](O)[C@H](O)[C@H]4O)cc3O2)cc1O [Compound 140, hesperidin]		21.6		SI (selectivity index) (LmDHFR-TS): 4.0; LmDHFR-TS IC50 (LmDHFR-TS; [1]): low activity; IC50 (HsDHFR): 86.5 µM
O=C(/C=C/c1ccc(O)c2c1[C@H](C(=O)O)[C@@H](c1ccc(O)c(O)c1)O2)O[C@H](Cc1ccc(O)c(O)c1)C(=O)O [Compound 237, lithospermic acid]		7.5	22.6	
COc1ccc(C[C@H]2COC(=O)[C@@H]2Cc2cc(OC)c(O)c(-c3cc(C[C@H]4C(=O)OC[C@@H]4Cc4ccc(OC)c(OC)c4)cc(OC)c3O)c2)cc1OC [Compound 306, diarctigenin]		6.1	27.9	
COc1cc(C[C@H]2COC(=O)[C@@H]2Cc2cc(OC)c3c(c2)[C@H](CO)[C@@H](c2ccc(O)c(OC)c2)O3)ccc1O [Compound 308, isolappaol A]		10.1	44.8	
C[C@H]1CCC/C=C/[C@@H]2C[C@H](O)C[C@H]2[C@H](OC(=O)/C=C/c2ccc(N(C)C)cc2)/C=C/C(=O)O1 [brefeldin A 4-O-(4)-dimethylaminocinnamate]				IC50 (HepG2): 0.29 µM; IC50 (BEL-7402): 0.84 µM
O=C(O)/C=C/c1ccccc1 [cinnamic acid]	0.25			
O=c1cc(-c2ccc(O[C@@H]3O[C@H](CO)[C@@H](O)[C@H](O)[C@H]3O)cc2)oc2cc(O)c([C@@H]3O[C@H](CO)[C@@H](O)[C@H](O)[C@H]3O)c(O)c12 [isovitexin 4′-O-glucoside]			126	SI (selectivity index) (LmDHFR-TS): 2.4; LmDHFR-TS IC50 (LmDHFR-TS; [1]): low activity; IC50 (LmDHFR-TS; recombinant LmDHFR-TS 2.7 nM, 0.1–128 μM test range, triplicate, read-out: LmDHFR-TS IC50): 53.2 µM
C=CC(C)(C)c1cc(/C=C/C(=O)c2ccc(O)cc2)c(OC)cc1O [licochalcone A]	0.9			
O=c1cc(-c2ccc(O)c(O)c2)oc2cc(O)cc(O)c12 [luteolin]	3.12			
O=c1c(O)c(-c2ccc(O)c(O)c2)oc2cc(O)cc(O)c12 [quercetin]	10.5			
C[C@@H]1O[C@@H](OC[C@H]2O[C@@H](Oc3c(-c4ccc(O)c(O)c4)oc4cc(O)cc(O)c4c3=O)[C@H](O)[C@@H](O)[C@@H]2O)[C@H](O)[C@H](O)[C@H]1O [rutin]		41.7	189	SI (selectivity index) (LmDHFR-TS): 4.5; LmDHFR-TS IC50 (LmDHFR-TS; [1]): low activity
